# Assay results taken from ChEMBL document CHEMBL1201862, “PubChem BioAssay data set” (2004).
# Active and inactive are the calls of the source.
# How the values were obtained:
# Protein Wnt-3a = Protein Wnt-3a (Mus musculus, UniProt P27467); assay: SAR analysis of small molecule antagonists of Gli-SUFU in a Wnt3a luminescent reporter assay.; type: functional
# [1] = target: Matrix metalloproteinase-14 (Homo sapiens, UniProt P50281); assay: Dose Response confirmation of uHTS hits for a small molecule inhibitors of MT1-MMP activation in a fluorescence assay set 1.; type: functional
# Steroidogenic factor 1 = Steroidogenic factor 1 (Homo sapiens, UniProt Q13285); assay: Counterscreen for inverse agonists of the liver receptor homolog-1 (LRH-1; NR5A2): Luminescence-based cell-based high throughput dose response assay to identify inverse agonists of the Steroidogenic Factor 1 Nuclear Receptor (SF1; NR5A1).; type: functional
# Sequence of Steroidogenic factor 1 (Q13285 whole entry): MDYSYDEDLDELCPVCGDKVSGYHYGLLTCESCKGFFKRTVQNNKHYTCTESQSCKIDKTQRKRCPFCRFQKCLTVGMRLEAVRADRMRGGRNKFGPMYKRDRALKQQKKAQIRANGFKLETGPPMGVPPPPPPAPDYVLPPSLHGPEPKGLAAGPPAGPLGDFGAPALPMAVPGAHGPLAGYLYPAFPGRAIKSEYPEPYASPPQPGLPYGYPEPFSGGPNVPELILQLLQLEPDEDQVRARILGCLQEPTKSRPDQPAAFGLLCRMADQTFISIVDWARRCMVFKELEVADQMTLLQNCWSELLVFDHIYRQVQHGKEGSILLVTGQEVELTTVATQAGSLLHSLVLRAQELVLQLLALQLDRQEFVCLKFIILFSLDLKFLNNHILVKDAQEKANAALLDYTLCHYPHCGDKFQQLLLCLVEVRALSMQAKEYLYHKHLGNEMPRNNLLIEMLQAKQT
# [2] = target: Nuclear receptor subfamily 5 group A member 2 (Homo sapiens, UniProt O00482); type: functional, cell-based;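 further: HEK293T cells transfected with LRH-1 and a StAR promoter luciferase reporter; potency for inhibitors that lower LRH-1 driven reporter light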
# Sequence of Nuclear receptor subfamily 5 group A member 2 (O00482 whole entry): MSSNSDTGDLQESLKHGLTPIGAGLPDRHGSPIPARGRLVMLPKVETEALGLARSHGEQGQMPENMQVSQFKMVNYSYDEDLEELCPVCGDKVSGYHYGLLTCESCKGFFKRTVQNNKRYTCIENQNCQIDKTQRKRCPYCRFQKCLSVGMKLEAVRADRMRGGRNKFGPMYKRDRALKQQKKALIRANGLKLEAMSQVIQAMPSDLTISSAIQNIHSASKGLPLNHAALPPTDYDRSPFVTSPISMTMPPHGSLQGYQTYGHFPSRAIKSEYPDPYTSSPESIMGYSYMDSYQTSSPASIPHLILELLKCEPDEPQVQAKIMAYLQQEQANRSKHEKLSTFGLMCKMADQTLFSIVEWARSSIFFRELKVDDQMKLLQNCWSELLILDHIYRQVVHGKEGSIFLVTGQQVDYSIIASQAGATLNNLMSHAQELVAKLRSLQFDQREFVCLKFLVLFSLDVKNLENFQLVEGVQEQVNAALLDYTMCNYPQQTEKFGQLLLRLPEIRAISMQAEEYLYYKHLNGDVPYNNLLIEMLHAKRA
# [3] = StAR promoter reporter inhibition counter-screen, dose response, counter-screen for LRH-1 inverse agonist project, cell-based, luminescence, luciferase reporter (AID 651969); type: functional
# Galanin receptor type 3 = Galanin receptor type 3 (Homo sapiens, UniProt O60755); assay: Fluorescence-based cell-based primary high throughput dose response assay to identify antagonists of the Galanin Receptor 3 (GalR3).; type: functional
# Sequence of Galanin receptor type 3 (O60755 whole entry): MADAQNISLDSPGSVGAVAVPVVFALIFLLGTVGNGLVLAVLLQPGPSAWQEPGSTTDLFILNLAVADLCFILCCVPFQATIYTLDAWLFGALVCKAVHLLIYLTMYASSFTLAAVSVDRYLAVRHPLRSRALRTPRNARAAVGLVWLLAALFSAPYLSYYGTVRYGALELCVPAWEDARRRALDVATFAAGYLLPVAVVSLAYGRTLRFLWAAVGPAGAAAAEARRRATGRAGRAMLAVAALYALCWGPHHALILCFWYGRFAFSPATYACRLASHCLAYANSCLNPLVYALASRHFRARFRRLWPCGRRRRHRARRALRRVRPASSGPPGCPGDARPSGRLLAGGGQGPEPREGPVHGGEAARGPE
# [4] = cytotoxicity in MIN6 insulinoma cells, dose response, cytotoxicity control, cell-based, mouse insulinoma (AID 2122); type: functional;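 further: confirmatory high-throughput counterscreen run to flag cytotoxic compounds; mouse MIN-6 beta cells carrying an insulin promoter eGFP reporter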
# INS1 = assay: beta cell apoptosis inhibitors, cytokine rescue, dose response, luminescence, retest (AID 449756); type: functional, cell-based; conditions: Rattus norvegicus;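 further: cell death triggered by IL-1 beta plus TNF-alpha plus IFN-gamma mixture; protective hits raise ATP signal compared with cytokine alone wells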
# [5] = cytotoxicity in HEK-293T cells, dose response, cytotoxicity control for TCR NF-kB inhibitor project, luminescence, T-cell screen hits (AID 489026); type: functional, cell-based;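 further: cells exposed to compound about 14 hours before the viability readout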
# [6] = HepG2 cell cytotoxicity, dose response, cytotoxicity control for Shn3 inhibitor project, CellTiter-Glo, cherry-picked (AID 624134); type: functional, cell-based
# [7] = control 3'UTR Renilla luciferase suppression, dose response, counter-screen for Shn3 inhibitor project, cell-based, Clone20-Shn3RL, cherry-picked (AID 624133); type: functional
# cells = type: functional, cell-based; conditions: HEK-CNG
# [8] = Shn3 3'UTR reporter inhibitors, dose response, cell-based, Clone20 osteoblasts, firefly luciferase, cherry-picked (AID 624132); type: functional;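 further: firefly luciferase luminescence from reporter carrying the Shn3 3'UTR in osteoblasts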
# [9] = insulin promoter down-regulators in MIN6 cells, imaging, high-content screening, mouse beta cells (AID 1628); type: functional
# [10] = target: Dual specificity tyrosine-phosphorylation-regulated kinase 1A (Rattus norvegicus, UniProt Q63470); type: biochemical, Homo sapiens
# [11] = target: Long-chain-fatty-acid--AMP ligase FadD28 (Mycobacterium tuberculosis, UniProt P9WQ59); assay: Fluorescence polarization aasay to screen for inhibitors that compete for the binding of FadD28 to a bisubstrate Measured in Biochemical System Using Plate Reader - 2147-01_Inhibitor_Dose_CherryPick_Activity.; type: functional, Mycobacterium tuberculosis H37Rv
# Sequence of Long-chain-fatty-acid--AMP ligase FadD28 (P9WQ59 whole entry): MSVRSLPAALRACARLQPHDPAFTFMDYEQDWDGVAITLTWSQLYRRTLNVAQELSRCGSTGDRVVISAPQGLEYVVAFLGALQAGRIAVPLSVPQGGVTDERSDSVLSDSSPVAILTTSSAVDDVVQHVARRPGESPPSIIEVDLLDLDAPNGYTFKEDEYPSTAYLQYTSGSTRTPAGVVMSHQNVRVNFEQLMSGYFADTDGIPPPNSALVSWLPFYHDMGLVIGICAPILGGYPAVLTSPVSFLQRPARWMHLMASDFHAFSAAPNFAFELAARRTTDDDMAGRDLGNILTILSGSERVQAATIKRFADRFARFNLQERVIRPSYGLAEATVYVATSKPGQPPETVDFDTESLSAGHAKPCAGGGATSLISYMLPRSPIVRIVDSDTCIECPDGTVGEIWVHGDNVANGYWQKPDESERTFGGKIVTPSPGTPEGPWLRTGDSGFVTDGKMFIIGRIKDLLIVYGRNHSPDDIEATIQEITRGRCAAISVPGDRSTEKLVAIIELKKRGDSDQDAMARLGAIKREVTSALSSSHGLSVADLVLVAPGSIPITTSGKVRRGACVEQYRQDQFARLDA
# [12] = target: T1, Corticotropin-releasing factor receptor 2/Corticotropin-releasing factor-binding protein (Homo sapiens, UniProt P24387+Q13324); assay: activators of CRF receptor 2 with binding protein – uHTS hits, confirmation (AID 602473); type: functional; conditions: read-out: EC50_Mean
# T1 sequence (Q13324 whole entry): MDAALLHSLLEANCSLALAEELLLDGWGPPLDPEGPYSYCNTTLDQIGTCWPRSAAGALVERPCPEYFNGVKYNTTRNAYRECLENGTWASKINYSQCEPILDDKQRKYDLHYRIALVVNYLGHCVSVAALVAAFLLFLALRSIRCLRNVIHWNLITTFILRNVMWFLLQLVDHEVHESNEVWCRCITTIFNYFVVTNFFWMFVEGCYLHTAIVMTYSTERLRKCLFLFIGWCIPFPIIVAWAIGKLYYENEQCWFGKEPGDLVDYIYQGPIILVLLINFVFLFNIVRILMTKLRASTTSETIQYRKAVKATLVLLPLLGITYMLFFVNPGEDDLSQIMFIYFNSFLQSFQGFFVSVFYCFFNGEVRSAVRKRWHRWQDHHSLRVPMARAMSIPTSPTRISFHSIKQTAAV
# T1 sequence (P24387 whole entry): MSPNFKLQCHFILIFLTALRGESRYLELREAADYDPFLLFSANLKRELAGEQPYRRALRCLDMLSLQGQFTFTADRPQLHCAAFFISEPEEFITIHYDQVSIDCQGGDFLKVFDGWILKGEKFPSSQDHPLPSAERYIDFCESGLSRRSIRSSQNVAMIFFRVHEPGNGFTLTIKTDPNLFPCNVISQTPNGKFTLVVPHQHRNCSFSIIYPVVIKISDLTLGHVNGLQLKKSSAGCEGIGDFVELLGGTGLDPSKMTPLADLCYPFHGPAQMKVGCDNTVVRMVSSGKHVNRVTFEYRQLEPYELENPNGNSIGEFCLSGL
# [13] = target: T1, Corticotropin-releasing factor receptor 2/Corticotropin-releasing factor-binding protein; assay: Dose Response confirmation of uHTS hits for small molecule antagonists of the CRF-binding protein and CRF-R2 receptor complex.; type: functional; conditions: read-out: IC50_Mean
# [14] = CRF-BP/CRF-R2 complex antagonists, dose response, cell-based, uHTS hits, 384-well (AID 651639); type: functional, Homo sapiens; conditions: read-out: IC50_Mean
# Aminopeptidase N = target: T2, Aminopeptidase N (Plasmodium falciparum FcB1/Columbia, UniProt O96935); assay: P. falciparum M1AAP inhibitors, biochemical, fluorogenic H-Leu-NHMec substrate, 1536-well (AID 1445); design: species or system Plasmodium falciparum 3D7, 3D7
# T2 sequence (O96935 whole entry): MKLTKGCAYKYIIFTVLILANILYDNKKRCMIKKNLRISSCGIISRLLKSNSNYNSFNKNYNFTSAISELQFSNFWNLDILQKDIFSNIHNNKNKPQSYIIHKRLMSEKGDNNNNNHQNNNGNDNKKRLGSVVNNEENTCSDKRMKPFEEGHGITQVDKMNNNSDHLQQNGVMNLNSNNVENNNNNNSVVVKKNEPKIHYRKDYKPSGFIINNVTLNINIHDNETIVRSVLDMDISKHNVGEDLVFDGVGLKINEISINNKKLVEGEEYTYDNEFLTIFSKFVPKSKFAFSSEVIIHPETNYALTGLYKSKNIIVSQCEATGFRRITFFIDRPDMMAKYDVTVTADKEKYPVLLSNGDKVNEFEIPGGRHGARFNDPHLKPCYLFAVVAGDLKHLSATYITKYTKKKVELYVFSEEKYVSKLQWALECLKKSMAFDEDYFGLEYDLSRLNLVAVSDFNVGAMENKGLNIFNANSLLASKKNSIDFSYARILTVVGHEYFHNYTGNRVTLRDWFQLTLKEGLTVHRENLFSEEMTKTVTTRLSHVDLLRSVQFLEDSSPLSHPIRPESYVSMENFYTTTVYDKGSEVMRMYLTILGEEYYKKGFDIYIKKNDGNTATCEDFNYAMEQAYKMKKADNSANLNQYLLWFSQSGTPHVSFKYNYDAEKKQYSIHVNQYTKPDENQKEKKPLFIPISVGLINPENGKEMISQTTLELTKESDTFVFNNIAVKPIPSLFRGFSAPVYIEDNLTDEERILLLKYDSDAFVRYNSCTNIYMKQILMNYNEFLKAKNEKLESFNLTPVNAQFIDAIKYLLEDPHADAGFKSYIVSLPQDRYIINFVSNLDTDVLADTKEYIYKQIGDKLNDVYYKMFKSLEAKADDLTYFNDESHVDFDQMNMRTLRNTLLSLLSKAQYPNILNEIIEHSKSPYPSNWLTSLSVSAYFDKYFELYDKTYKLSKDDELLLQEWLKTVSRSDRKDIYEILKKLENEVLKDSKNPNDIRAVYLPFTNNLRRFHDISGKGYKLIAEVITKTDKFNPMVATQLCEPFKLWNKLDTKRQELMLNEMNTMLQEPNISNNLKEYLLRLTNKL
# [15] = target: T3, Rac GTPase-activating protein 1 (Homo sapiens, UniProt Q9H0H5); assay: MgcRacGAP GTPase-activating activity inhibitors, confirmation, biochemical, ADP Hunter fluorescence, primary and confirmatory (AID 624330); type: functional
# T3 sequence (Q9H0H5 whole entry): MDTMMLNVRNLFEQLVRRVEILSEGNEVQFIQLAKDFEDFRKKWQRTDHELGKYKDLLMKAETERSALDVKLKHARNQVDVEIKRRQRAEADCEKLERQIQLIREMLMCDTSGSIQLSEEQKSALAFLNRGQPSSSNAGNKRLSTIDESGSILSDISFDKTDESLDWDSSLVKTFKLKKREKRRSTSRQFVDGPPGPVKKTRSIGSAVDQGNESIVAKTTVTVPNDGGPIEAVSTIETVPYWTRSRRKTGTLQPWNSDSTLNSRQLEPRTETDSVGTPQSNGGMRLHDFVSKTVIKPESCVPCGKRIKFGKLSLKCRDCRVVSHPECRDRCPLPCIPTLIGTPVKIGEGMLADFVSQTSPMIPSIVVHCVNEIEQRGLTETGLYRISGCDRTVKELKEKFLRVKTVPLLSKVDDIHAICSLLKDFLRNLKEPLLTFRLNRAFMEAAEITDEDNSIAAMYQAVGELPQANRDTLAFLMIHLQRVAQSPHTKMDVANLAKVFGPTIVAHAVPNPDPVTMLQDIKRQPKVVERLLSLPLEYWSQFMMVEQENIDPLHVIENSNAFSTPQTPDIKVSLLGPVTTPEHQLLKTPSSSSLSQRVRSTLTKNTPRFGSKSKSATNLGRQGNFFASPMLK
# Cytochrome P450 2C19 = Cytochrome P450 2C19 (Homo sapiens, UniProt P33261); assay: Cytochrome panel assay with activity outcomes. Panel member name: p450-cyp2c19 Compounds with AC50 equal or less than 10 uM are considered active; type: functional; conditions: read-out: AC50
# Sequence of Cytochrome P450 2C19 (P33261 whole entry): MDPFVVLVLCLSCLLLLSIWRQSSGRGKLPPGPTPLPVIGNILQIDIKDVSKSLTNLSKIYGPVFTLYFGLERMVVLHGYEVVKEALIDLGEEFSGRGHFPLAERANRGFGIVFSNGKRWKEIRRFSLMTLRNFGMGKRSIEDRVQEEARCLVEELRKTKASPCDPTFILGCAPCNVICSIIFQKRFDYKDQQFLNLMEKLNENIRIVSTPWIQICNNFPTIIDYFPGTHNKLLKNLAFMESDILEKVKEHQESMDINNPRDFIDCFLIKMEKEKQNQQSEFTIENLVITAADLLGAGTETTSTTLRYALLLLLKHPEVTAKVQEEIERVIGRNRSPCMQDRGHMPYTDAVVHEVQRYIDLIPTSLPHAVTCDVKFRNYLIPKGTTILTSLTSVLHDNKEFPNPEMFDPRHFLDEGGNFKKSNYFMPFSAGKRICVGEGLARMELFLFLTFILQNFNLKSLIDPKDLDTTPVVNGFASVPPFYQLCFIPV
# [16] = target: Glucose-6-phosphate 1-dehydrogenase (Homo sapiens, UniProt P11413); assay: human G6PD enzyme inhibitors, dose response, selectivity assay for P. falciparum G6PD inhibitor project, biochemical, fluorescence (AID 504792); type: functional
# [17] = Counterscreen for activators of the function of SWI/SNF related, matrix associated, actin dependent regulator of chromatin, subfamily a, member 2 (SMARCA2, BRM): Luminescence-based cell-based high throughput dose response assay to identify non-selective compounds using the VP16 reporter assay.; type: functional
# [18] = target: T4, DNA repair protein RAD52 homolog (Homo sapiens, UniProt P43351); type: functional, biochemical
# T4 sequence (P43351 whole entry): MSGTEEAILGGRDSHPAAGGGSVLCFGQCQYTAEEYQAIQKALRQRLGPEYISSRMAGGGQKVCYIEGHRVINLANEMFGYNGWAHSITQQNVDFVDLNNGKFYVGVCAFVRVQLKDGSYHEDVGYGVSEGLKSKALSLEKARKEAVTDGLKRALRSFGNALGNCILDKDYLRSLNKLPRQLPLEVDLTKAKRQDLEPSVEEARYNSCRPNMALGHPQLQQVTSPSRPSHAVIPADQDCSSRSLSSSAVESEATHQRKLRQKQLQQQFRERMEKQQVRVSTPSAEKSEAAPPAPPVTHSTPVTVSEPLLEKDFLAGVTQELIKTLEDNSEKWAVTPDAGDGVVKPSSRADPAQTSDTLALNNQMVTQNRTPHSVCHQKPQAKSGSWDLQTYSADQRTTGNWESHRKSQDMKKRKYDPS
# [19] = target: SWI/SNF-related matrix-associated actin-dependent regulator of chromatin subfamily A member 2 (Homo sapiens, UniProt P51531); assay: Luminescence-based cell-based high throughput dose response assay to identify activators of the function of SWI/SNF related, matrix associated, actin dependent regulator of chromatin, subfamily a, member 2 (SMARCA2, BRM).; type: functional
# Sequence of SWI/SNF-related matrix-associated actin-dependent regulator of chromatin subfamily A member 2 (P51531 whole entry): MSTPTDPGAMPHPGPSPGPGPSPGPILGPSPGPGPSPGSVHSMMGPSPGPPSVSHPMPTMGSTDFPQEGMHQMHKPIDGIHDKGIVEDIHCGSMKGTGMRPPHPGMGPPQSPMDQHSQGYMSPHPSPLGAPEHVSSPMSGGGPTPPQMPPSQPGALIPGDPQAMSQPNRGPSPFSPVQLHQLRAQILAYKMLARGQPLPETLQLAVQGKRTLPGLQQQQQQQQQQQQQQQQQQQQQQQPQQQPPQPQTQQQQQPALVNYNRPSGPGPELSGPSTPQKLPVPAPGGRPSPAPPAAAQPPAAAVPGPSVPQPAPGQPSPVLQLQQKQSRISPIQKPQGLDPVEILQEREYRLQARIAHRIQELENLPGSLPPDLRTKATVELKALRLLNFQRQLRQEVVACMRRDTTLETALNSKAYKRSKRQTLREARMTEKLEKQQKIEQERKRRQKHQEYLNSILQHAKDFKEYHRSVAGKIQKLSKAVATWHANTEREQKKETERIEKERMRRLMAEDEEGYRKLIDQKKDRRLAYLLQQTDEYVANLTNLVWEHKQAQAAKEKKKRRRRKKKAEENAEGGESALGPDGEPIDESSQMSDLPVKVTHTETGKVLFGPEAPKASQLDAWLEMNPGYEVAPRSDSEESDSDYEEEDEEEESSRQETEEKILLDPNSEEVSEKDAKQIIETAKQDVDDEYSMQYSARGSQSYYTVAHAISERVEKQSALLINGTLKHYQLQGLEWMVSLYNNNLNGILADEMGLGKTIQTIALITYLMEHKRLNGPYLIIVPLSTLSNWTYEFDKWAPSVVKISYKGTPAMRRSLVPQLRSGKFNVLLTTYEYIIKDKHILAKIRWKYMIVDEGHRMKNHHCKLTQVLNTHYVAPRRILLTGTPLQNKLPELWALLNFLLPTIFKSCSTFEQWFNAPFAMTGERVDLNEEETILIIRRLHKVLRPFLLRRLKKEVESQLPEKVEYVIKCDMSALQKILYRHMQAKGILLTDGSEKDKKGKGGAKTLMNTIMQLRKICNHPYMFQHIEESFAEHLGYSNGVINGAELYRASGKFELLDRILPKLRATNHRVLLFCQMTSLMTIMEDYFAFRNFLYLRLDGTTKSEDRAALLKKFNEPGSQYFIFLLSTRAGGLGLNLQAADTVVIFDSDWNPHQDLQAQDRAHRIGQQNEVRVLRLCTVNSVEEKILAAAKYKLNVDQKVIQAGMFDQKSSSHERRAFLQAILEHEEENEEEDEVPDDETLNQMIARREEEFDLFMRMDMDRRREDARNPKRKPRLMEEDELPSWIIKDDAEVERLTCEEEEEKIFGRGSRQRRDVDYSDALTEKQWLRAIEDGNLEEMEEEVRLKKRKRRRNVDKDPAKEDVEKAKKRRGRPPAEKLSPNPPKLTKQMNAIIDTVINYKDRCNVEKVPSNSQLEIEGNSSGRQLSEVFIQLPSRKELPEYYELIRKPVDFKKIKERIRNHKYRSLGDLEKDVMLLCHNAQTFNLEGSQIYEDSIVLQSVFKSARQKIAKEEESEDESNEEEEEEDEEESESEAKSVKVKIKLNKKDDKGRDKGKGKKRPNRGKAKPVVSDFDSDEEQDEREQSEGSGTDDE
# [20] = HeLa cell cytotoxicity, dose response, cytotoxicity control for MgcRacGAP inhibitor project (AID 624300); type: functional
# Kallikrein-7 = Kallikrein-7 (Homo sapiens, UniProt P49862); assay: Fluorescence Intensity-based biochemical primary high throughput dose response assay to identify activators of kallikrein-7 (K7) zymogen.
# Sequence of Kallikrein-7 (P49862 whole entry): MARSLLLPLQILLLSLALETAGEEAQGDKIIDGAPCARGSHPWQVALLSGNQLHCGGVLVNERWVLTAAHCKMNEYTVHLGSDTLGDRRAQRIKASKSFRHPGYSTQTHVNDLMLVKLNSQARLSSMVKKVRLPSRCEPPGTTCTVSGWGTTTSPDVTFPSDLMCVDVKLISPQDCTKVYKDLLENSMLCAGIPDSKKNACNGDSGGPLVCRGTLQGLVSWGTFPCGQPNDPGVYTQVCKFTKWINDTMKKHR
# [21] = HEK293T cytotoxicity, dose response, cytotoxicity control for miR-122 modulator project, cell-based, activator set, cherry-pick (AID 720690); type: functional;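 further: HEK293T human cells scored for general mammalian cytotoxicity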
# [22] = HEK293T cytotoxicity, dose response, cytotoxicity control for miR-122 modulator project, cell-based, inhibitor set, cherry-pick, set 2 (AID 720697); type: functional
# Sequence of Protein Wnt-3a (P27467 whole entry): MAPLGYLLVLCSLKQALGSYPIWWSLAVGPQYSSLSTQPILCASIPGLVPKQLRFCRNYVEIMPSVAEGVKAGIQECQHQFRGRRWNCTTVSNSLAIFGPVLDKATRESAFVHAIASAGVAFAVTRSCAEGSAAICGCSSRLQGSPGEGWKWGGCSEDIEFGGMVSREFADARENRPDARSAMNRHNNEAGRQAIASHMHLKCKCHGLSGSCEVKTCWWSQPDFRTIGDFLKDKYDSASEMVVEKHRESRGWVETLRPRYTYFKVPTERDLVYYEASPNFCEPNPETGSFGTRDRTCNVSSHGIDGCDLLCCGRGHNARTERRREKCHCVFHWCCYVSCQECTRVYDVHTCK
smiles,measurement,setting,value
CCN(CC)c1cc(NC(=O)c2ccc(Br)o2)ncn1,IC50,Protein Wnt-3a,> 21.8 µM (inactive)
CNc1ccc(N=Nc2cc[n+]([O-])cc2C)cc1C,IC50,[1],> 80 µM (inactive)
Cc1ccc(-c2nn3c(C)nnc3s2)cc1NC(=O)c1cccs1,IC50,Steroidogenic factor 1,0.684 µM (active)
same,IC50,[2],1.13 µM (active)
same,IC50,[3],35.9 µM (inactive)
COc1cc(OC)cc(C(=O)Nc2cc(N3CCCC3)ncn2)c1,IC50,Protein Wnt-3a,> 21.8 µM (inactive)
Cc1cc(C)nc(SCC(=O)Nc2ccnc3ccccc23)n1,IC50,Galanin receptor type 3,0.874 µM (active)
same,IC50,[4],0.398 µM (active)
same,AC50,INS1,4.76 µM (active)
same,IC50,[5],> 80 µM (inactive)
same,AC50,[6],> 70 µM (inactive)
same,AC50,[7],< 0.26 µM (active)
same,EC50,cells,> 29.9 µM (inactive)
same,AC50,[8],0.462 µM (active)
same,IC50,[9],0.695 µM (active)
COc1cccc(/C=N/n2c(S)nnc2C2CCCCC2)c1O,AC50,[10],6.14 µM (active)
same,AC50,[11],16.8 µM (active)
Cc1ccc(S(=O)(=O)NC2=NC(=O)/C(=C/c3ccccc3)S2)cc1,EC50,[12],> 53 µM (inactive)
same,IC50,[13],18.4 µM (active)
same,IC50,[14],> 20 µM (inactive)
same,IC50,Aminopeptidase N,69.2 µM (active)
Cc1ccc(NC(=O)CN2C(=O)NC(C)(CC(C)C)C2=O)c(Br)c1 (centres undefined),IC50,Steroidogenic factor 1,8.09 µM (active)
same,IC50,[2],11.7 µM (inactive)
same,IC50,[3],35.9 µM (inactive)
O=C(COC(=O)C1(c2ccc(F)cc2)CCCC1)NCc1ccc2c(c1)OCO2,EC50,[12],> 53 µM (inactive)
same,IC50,[13],< 0.368 µM (active)
same,IC50,[14],11.1 µM (active)
COc1ccc2nc3cc(Cl)ccc3c(Nc3ccc(O)c(CN4CCN(C)CC4)c3)c2c1,IC50,[15],45.4 µM (active)
same,AC50,[10],7.7 µM (active)
same,AC50,Cytochrome P450 2C19,2.51 µM (inconclusive)
same,IC50,[16],> 80 µM (inactive)
same,EC50,[17],> 91.1 µM (inactive)
same,AC50,[18],< 0.15 µM (active)
same,EC50,[19],> 91.1 µM (inactive)
same,CC50,[20],25.6 µM (active)
same,EC50,Kallikrein-7,> 69.5 µM (inactive)
COc1ccc(-c2c(-c3ccccc3)c(C(=O)C(=O)NCCCN(C)C)n3ccc4cc(OC)c(OC)cc4c23)cc1OC,AC50,[21],17.2 µM (active)
same,AC50,[22],4.39 µM (active)
same,AC50,[18],3.15 µM (active)
